Assay results published in PMC4963535, “Structure-guided development of heterodimer-selective GPCR ligands” (Nature Communications, 2016).
“Also recorded” adds a separate entry of the source. Like-named read-outs stand apart in the source and are kept apart here. Non-standard residues stand in square brackets, D forms with d. No end group written: not given here. aminoindane‑type D2R agonist pharmacophore = not defined here; N(4-hydroxyphenethyl)Gly = O=C(O)CNCCc1ccc(O)cc1; biphenyltriazole = not defined here

Assays:
[1] = biological target: T1, hD4.4R (Homo sapiens, UniProt P21917); experiment: [3H]spiperone displacement, membranes from CHO cells stably expressing hD4.4R; type: binding
T1 construct: expressed in transfected cells
T1 sequence (P21917 1-419): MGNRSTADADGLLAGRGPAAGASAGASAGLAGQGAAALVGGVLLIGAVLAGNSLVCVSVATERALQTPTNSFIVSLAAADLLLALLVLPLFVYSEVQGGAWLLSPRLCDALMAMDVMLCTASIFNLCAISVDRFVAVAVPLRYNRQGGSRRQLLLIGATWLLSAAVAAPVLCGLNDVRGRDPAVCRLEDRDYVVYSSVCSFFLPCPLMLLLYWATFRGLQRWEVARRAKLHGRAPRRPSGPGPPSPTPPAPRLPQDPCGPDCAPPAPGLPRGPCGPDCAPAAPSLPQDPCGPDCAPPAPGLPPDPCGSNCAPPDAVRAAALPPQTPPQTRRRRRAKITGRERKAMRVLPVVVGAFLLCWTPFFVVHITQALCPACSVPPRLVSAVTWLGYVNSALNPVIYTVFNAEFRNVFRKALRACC

[2] = biological target: T2, hD3R (Homo sapiens, UniProt P35462); experiment: [3H]spiperone displacement, membranes from CHO cells stably expressing hD3R; type: binding
T2 construct: expressed in transfected cells
T2 sequence (P35462 whole entry): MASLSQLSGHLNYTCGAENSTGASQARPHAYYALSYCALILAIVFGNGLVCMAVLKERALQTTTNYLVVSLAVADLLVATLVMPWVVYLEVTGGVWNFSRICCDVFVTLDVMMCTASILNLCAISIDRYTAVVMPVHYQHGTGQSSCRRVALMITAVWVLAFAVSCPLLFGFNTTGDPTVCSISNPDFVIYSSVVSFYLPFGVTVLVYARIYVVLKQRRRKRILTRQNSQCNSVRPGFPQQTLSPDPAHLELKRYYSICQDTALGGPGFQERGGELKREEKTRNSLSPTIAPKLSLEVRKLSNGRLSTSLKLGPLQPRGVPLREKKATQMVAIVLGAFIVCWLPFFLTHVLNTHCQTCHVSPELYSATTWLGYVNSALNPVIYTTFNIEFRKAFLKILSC

[3] = biological target: D2LR/NTS1R (Homo sapiens, UniProt P14416+P30989); experiment: [3H]spiperone displacement, membranes from HEK 293 T cells coexpressing D2LR and NTS1R; settings: for Fraction high (fraction representing the high-affinity binding site): D2LR:NTS1R 1:2, mean ± s.e.m.
D2LR/NTS1R, sequence (P14416 whole entry): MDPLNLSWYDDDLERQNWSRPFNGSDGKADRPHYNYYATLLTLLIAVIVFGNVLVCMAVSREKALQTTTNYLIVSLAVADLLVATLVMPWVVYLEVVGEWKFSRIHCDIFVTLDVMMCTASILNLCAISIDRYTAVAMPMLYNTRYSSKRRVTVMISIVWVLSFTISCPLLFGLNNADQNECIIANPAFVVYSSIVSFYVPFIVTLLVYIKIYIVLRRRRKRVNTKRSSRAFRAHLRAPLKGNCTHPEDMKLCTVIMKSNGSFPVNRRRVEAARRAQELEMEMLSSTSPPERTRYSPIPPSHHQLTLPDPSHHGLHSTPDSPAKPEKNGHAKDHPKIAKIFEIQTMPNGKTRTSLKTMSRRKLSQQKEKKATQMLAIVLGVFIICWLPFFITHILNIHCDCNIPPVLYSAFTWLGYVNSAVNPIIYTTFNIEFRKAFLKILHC
D2LR/NTS1R, sequence (P30989 whole entry): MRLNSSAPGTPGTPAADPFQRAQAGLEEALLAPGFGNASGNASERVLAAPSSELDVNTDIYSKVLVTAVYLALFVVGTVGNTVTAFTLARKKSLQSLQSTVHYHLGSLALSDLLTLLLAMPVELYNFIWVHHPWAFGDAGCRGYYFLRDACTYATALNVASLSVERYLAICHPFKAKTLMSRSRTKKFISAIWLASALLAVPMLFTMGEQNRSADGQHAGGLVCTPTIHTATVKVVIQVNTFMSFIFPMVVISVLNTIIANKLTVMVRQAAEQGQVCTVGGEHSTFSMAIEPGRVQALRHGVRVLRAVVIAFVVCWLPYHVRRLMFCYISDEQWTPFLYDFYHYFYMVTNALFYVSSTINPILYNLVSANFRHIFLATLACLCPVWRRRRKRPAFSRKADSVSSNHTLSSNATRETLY

[4] = biological target: T3, hNTS2R (Homo sapiens, UniProt O95665); experiment: [3H]NT(8-13) displacement, homogenates from transiently transfected HEK 293T cells, human NTS2R; type: binding
T3 construct: host or cells: HEK 293T
T3 sequence (O95665 whole entry): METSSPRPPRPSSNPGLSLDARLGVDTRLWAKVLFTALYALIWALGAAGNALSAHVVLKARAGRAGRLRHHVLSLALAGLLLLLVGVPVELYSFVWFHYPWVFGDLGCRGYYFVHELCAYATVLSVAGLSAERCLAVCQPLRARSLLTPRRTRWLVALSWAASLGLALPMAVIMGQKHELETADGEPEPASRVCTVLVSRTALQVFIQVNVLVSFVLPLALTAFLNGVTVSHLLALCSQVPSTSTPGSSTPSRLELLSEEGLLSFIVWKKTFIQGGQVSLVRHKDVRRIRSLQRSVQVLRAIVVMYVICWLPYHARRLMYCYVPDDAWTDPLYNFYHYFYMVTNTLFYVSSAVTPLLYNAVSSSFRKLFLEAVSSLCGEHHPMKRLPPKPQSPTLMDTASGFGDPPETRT

[5] = biological target: porcine striatal membranes (D2LR, NTS1R); experiment: [3H]spiperone displacement, porcine striatal membranes; type: binding; settings: porcine striatum
[6] = biological target: T4, D2SR (Homo sapiens, UniProt P14416); experiment: cAMP BRET assay (CAMYEL biosensor), HEK 293 T cells expressing D2SR; type: cell-based; settings: for effect on forskolin-induced cAMP accumulation, cells expressing D2R only (in words): 10 μM forskolin
T4 construct: expressed in transfected cells; host or cells: HEK 293 T
T4 sequence (P14416 1-414 isoform P14416-2): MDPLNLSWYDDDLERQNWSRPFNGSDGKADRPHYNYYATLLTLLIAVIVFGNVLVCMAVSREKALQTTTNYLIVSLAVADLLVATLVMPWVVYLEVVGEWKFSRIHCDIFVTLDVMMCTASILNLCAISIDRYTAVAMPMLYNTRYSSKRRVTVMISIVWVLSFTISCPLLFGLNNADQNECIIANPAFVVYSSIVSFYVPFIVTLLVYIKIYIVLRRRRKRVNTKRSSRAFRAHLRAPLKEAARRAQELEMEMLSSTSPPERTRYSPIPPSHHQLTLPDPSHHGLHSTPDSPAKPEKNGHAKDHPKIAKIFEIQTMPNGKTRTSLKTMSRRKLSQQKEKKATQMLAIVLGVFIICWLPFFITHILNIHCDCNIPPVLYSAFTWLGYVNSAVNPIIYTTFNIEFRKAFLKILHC

[7] = biological target: T5, D2R_D80A/NTS1R (Homo sapiens, UniProt P14416+P30989, D80A); experiment: β-arrestin-2 recruitment (DiscoveRx PathHunter), ProLink-tagged signalling incompetent D2R_D80A coexpressed with NTS1R; type: cell-based
T5 construct: host or cells: HEK 293 stably expressing EA-tagged β-arrestin-2
T5 sequence (P14416 1-414 isoform P14416-2 D80A): as the sequence (P14416 1-414 isoform P14416-2) above, with D80A counted along it
T5 sequence (P30989 whole entry): as the sequence (P30989 whole entry) above

[8] = biological target: T6, D2SR/NTS1R (Homo sapiens, UniProt P14416+P30989); experiment: cAMP BRET assay (CAMYEL biosensor), HEK 293 T cells coexpressing D2SR and NTS1R; type: cell-based; settings: for Emax: HEK-293T, read-out: Effect (Emax) D2SR/NTS1R, cAMP accumulation
T6 construct: expressed in transfected cells; host or cells: HEK 293 T
T6 sequence (P14416 1-414 isoform P14416-2): as the sequence (P14416 1-414 isoform P14416-2) above
T6 sequence (P30989 whole entry): as the sequence (P30989 whole entry) above

[9] = biological target: T7, hD2LR (Homo sapiens, UniProt P14416); experiment: [3H]spiperone displacement, membranes from CHO cells stably expressing hD2LR; type: binding
T7 construct: expressed in transfected cells
T7 sequence (P14416 whole entry): as the sequence (P14416 whole entry) above

[10] = biological target: T8, human D2LR (Homo sapiens, UniProt P14416); experiment: [3H]spiperone displacement, membranes from HEK 293 T cells transiently transfected with D2LR; type: binding; settings: D2LR monoexpression; mean ± s.e.m.
T8 construct: host or cells: HEK 293 T
T8 sequence (P14416 whole entry): as above

[11] = biological target: T9, NTS1R (Homo sapiens, UniProt P30989); experiment: cAMP BRET assay (CAMYEL biosensor), HEK 293 T cells expressing NTS1R; type: cell-based; design: expressed in transfected cells; host or cells: HEK 293 T
T9 sequence (P30989 whole entry): as the sequence (P30989 whole entry) above

[12] = biological target: T9, NTS1R; experiment: radioligand displacement, homogenates from CHO cells stably expressing human NTS1R; type: binding; settings: [3H]NT, mean ± s.d.
[13] = biological target: T10, hD2SR (Homo sapiens, UniProt P14416); experiment: [3H]spiperone displacement, membranes from CHO cells stably expressing hD2SR; type: binding
T10 construct: expressed in transfected cells
T10 sequence (P14416 1-414 isoform P14416-2): as the sequence (P14416 1-414 isoform P14416-2) above

[14] = biological target: T5, D2R_D80A/NTS1R; experiment: cAMP accumulation, cells coexpressing signalling incompetent D2R (D80A) and NTS1R; type: cell-based
[15] = biological target: T11, D2R/NTS1R (Homo sapiens, UniProt P14416+P30989); experiment: β-arrestin-2 recruitment (DiscoveRx PathHunter), HEK 293 cells with ProLink-tagged D2R and NTS1R; type: cell-based; settings: D2R/NTS1R-coexpressing cells
T11 construct: host or cells: HEK 293 stably expressing EA-tagged β-arrestin-2
T11 sequence (P14416 1-414 isoform P14416-2): as above
T11 sequence (P30989 whole entry): as the sequence (P30989 whole entry) above

[16] = biological target: T12, D2R (Homo sapiens, UniProt P14416); experiment: Antagonist effect on quinpirole-mediated inhibition of cAMP accumulation, HEK 293T cells expressing D2R; type: cell-based; settings: 10 nM quinpirole
T12 construct: expressed in transfected cells; host or cells: HEK 293 T
T12 sequence (P14416 1-414 isoform P14416-2): as the sequence (P14416 1-414 isoform P14416-2) above

[17] = biological target: T13, D2R/NTS1R heterodimer (D2LR and NTS1R coexpressed in HEK 293 T membranes), P14416; experiment: +1 uM NT(8-13); settings: N-homotyrosine (NhTyr) in place of tyrosine
T13 sequence (P14416 whole entry, chain 1 of 2): as the sequence (P14416 whole entry) above
T13 sequence (P30989 whole entry, chain 2 of 2, further chain): as the sequence (P30989 whole entry) above

[18] = biological target: T13, D2R/NTS1R heterodimer (D2LR and NTS1R …); experiment: monophasic; settings: N-homotyrosine (NhTyr) in place of tyrosine; N-terminus carries a 22-atom polyethylene glycol-based spacer, a biphenyltriazole moiety and a 2-methoxyphenylpiperazine D2R antagonist pharmacophore

CCc1cc(Cl)c(OC)c(C(=O)NC[C@@H]2C[C@@H](OCCCCc3cn(-c4ccc(-c5ccc(C(=O)NCCOCCOCCOCCOCCOCCOCCC(=O)NCCOCCOCCOCCOCCOCCOCCC(=O)NCCOCCOCCOCCOCCOCCOCCC(=O)NCCOCCOCCOCCOCCOCCOCCC(=O)N[C@@H](CCCNC(=N)N)C(=O)N[C@@H](CCCNC(=N)N)C(=O)N6CCC[C@H]6C(=O)N[C@@H](Cc6ccc(O)cc6)C(=O)N[C@H](C(=O)N[C@@H](CC(C)C)C(=O)O)[C@@H](C)CC)cc5)cc4)nn3)CN2CC)c1O [1d]
Ki [1]: 440 ± 190 nM
Ki [2]: 1.6 ± 0.4 nM
Fraction high (fraction representing the high-affinity binding site) [3]: 51 ± 5%

CC[C@H](C)[C@H](NC(=O)CN(CCc1ccc(O)cc1)C(=O)[C@@H]1CCCN1C(=O)[C@H](CCCNC(=N)N)NC(=O)[C@H](CCCNC(=N)N)NC(=O)CCOCCOCCOCCOCCOCCOCCNC(=O)c1ccc(-c2ccc(-n3cc(CCCCN4CCN(c5ccccc5OC)CC4)nn3)cc2)cc1)C(=O)N[C@@H](CC(C)C)C(=O)O [2e]
Ki [4]: 20 nM
Ki [2]: 5.8 ± 1.3 nM

CCCN(CCCCc1cn(-c2ccc(-c3ccc(C(=O)NCCOCCOCCOCCOCCOCCOCCC(=O)NCCOCCOCCOCCOCCOCCOCCC(=O)N[C@@H](CCCNC(=N)N)C(=O)N[C@@H](CCCNC(=N)N)C(=O)N4CCC[C@H]4C(=O)N(CCc4ccc(O)cc4)CC(=O)N[C@H](C(=O)N[C@@H](CC(C)C)C(=O)O)[C@@H](C)CC)cc3)cc2)nn1)C1Cc2ccccc2C1 [3f]
Ki [1]: 71 ± 4 nM
Ki [4]: 20 nM
Ki ([5]; read-out: Ki (monophasic), striatal membranes, absence of NT(8-13)): 28 ± 16 nM
Ki ([5]; read-out: Ki in the presence of […] μM NT(8-13), striatal membranes, monophasic): 29 ± 5 nM
Ki [2]: 1.1 ± 0.1 nM

CC[C@H](C)[C@H](NC(=O)[C@H](Cc1ccc(O)cc1)NC(=O)[C@@H]1CCCN1C(=O)[C@H](CCCNC(=N)N)NC(=O)[C@H](CCCNC(=N)N)NC(=O)CCOCCOCCOCCOCCOCCOCCNC(=O)c1ccc(-c2ccc(-n3cc(CCCCN4CCN(c5ccccc5OC)CC4)nn3)cc2)cc1)C(=O)N[C@@H](CC(C)C)C(=O)O [2a]
Ki [1]: 62 ± 4 nM
Ki [2]: 2.7 ± 0.1 nM

CCCN(CCCCc1cn(-c2ccc(-c3ccc(C(=O)NCCOCCOCCOCCOCCOCCOCCC(=O)NCCOCCOCCOCCOCCOCCOCCC(=O)NCCOCCOCCOCCOCCOCCOCCC(=O)N[C@@H](CCCNC(=N)N)C(=O)N[C@@H](CCCNC(=N)N)C(=O)N4CCC[C@H]4C(=O)N[C@@H](Cc4ccc(O)cc4)C(=O)N[C@H](C(=O)N[C@@H](CC(C)C)C(=O)O)[C@@H](C)CC)cc3)cc2)nn1)C1Cc2ccccc2C1 [3c]
Ki [1]: 80 ± 26 nM
effect on forskolin-induced cAMP accumulation, cells expressing D2R only (in words) [6]: stimulates D2R similar to quinpirole
Fraction high (fraction representing the high-affinity binding site) [3]: 50 ± 4%

CC[C@H](C)[C@H](NC(=O)[C@H](Cc1ccc(O)cc1)NC(=O)[C@@H]1CCCN1C(=O)[C@H](CCCNC(=N)N)NC(=O)[C@H](CCCNC(=N)N)NC(=O)CCOCCOCCOCCOCCOCCOCCNC(=O)CCOCCOCCOCCOCCOCCOCCNC(=O)CCOCCOCCOCCOCCOCCOCCNC(=O)c1ccc(-c2ccc(-n3cc(CCCCN4CCN(c5ccccc5OC)CC4)nn3)cc2)cc1)C(=O)N[C@@H](CC(C)C)C(=O)O [2c]
Ki [1]: 430 ± 220 nM
concentration of maximum effect (bell-shaped curve), D2R_D80A/NTS1R [7]: 300 nM
effect on forskolin-induced cAMP accumulation, cells expressing D2R only (in words) [6]: only weakly activates D2R
Fraction high (fraction representing the high-affinity binding site) [3]: 61 ± 2%

CCCN(CCCCc1cn(-c2ccc(-c3ccc(C(=O)NCCOC)cc3)cc2)nn1)C1Cc2ccccc2C1 [3g]
Emax [8]: -63 ± 2%
EC50 ([8]; read-out: EC50 D2SR/NTS1R, cAMP accumulation): 3.5 ± 1.4 nM
Ki [9]: 7.6 ± 1.7 nM
Ki [4]: 300 ± 250 nM
Ki [10]: 21 ± 4 nM
Emax ([6]; HEK-293T, read-out: Effect (Emax) D2SR, cAMP accumulation): -65 ± 1%
EC50 ([6]; read-out: EC50 D2SR, cAMP accumulation): 2.8 ± 0.4 nM
Ki [2]: 0.53 ± 0.25 nM
receptor activation (cAMP), cells monoexpressing NTS1R (in words) ([11]; 10 μM forskolin): caused no effect
cAMP response, cells expressing NTS1R only, absence of FSK (in words) ([11]; no forskolin): do not elicit any response
Ki [12]: 180 ± 40 nM
Ki [13]: 3.3 ± 0.8 nM
inhibition of cAMP accumulation, D2R (D80A)/NTS1R (in words) [14]: unable to inhibit cAMP accumulation

CC[C@H](C)[C@H](NC(=O)[C@H](Cc1ccc(O)cc1)NC(=O)[C@@H]1CCCN1C(=O)[C@H](CCCNC(=N)N)NC(=O)[C@H](CCCNC(=N)N)NC(=O)CCOCCOCCOCCOCCOCCOCCNC(=O)CCOCCOCCOCCOCCOCCOCCNC(=O)c1ccc(-c2ccc(-n3cc(CCCCN4CCN(c5ccccc5OC)CC4)nn3)cc2)cc1)C(=O)N[C@@H](CC(C)C)C(=O)O [2b]
Ki [1]: 180 ± 20 nM
concentration of maximum effect (bell-shaped curve), D2R_D80A/NTS1R [7]: 300 nM
concentration of maximum β-arrestin-2 recruitment (bell-shaped curve) [15]: 300 nM
Emax [8]: 31 ± 3%
change of cAMP levels in the absence of forskolin ([8]; no forskolin, vehicle 0 %, maximum effect of NT(8-13) 100 %): 83%
effect on forskolin-induced cAMP accumulation, cells expressing D2R only (in words) [6]: remained without significant effects
Ki [2]: 5.5 ± 0.9 nM
preference for the high- over the low-affinity binding site in the presence of GppNHp ([3]; 100 μM GppNHp): 330 fold
Fraction high (fraction representing the high-affinity binding site) [3]: 55 ± 3%
high affinity binding sites (fraction) ([3]; D2R/NTS1R = 2:1): 49 ± 3%
high affinity binding sites (fraction) ([3]; D2R/NTS1R = 3:1): 30 ± 3%
fraction high +GppNHp ([3]; in presence of 100 μM GppNHp): 46 ± 3%
antagonist behaviour at D2R (in words) [16]: neutral antagonists; also recorded: fully inhibit the effect of 10 nM quinpirole

{aminoindane‑type D2R agonist pharmacophore-biphenyltriazole-PEG spacer 22‑atom}-RRP[N(4-hydroxyphenethyl)Gly]IL (reading uncertain) [bivalent control compound 3e]
Ki ([17]; N-terminus carries a 22-atom polyethylene glycol-based spacer, a biphenyltriazole moiety and an aminoindane-type D2R agonist pharmacophore): 59 nM

{2‑methoxyphenylpiperazine D2R antagonist pharmacophore-biphenyltriazole-PEG spacer 44‑atom}-RRP[N(4-hydroxyphenethyl)Gly]IL (reading uncertain) [bivalent control compound 2f]
Ki ([17]; N-terminus carries a 44-atom polyethylene glycol-based spacer, a biphenyltriazole moiety and a 2-methoxyphenylpiperazine D2R antagonist pharmacophore): 200 nM

{2‑methoxyphenylpiperazine D2R antagonist pharmacophore-biphenyltriazole-PEG spacer 22‑atom}-RRP[N(4-hydroxyphenethyl)Gly]IL (reading uncertain) [bivalent control compound 2e]
Ki [18]: 30 nM
Ki ([17]; N-terminus carries a 22-atom polyethylene glycol-based spacer, a biphenyltriazole moiety and a 2-methoxyphenylpiperazine D2R antagonist pharmacophore): 96 nM
